In article PMC12356538, “Targeting the SARS-CoV‑2 RNA Translation Initiation Element SL1 by Molecules of Low Molecular Weight” (Journal of the American Chemical Society, 2025):

Legend:
[1] = test system: SARS-CoV-2 SL1 RNA (SL1 wt); format: binding; conditions: for wLOGSY factor / T2 reduction [%] / CSP [Hz]: 10 μM SL1 wt, 200 μM ligand; for wLOGSY factor / T2 reduction [%]: pH 6.2; for T2 reduction [%]: CPMG 100 vs 5 ms; for Rank: FBS ranking from summed ranks of CSP, wLOGSY and T2 results; for Rank / scoring in the FBS ranking compared with lead A: SL1 wt; for CSP [Hz]: ligand 1H CSP, [RNA]:[ligand] 1:20, pH 6.2
SL1 Δbulge RNA = format: binding, SARS-CoV-2
SL1 wt RNA = test: NMR-based KD estimation, ligand-detected 1D-1H titration; format: binding, SARS-CoV-2; conditions: Suppl. Table 7, ligand constant at 100, SL1 wt RNA concentration 0-200; for Kd: read-out: KDest

Compound | wLOGSY factor [1] | T2 reduction [%] [1] | Rank [1] | CSP [Hz] [1] | FBS result (CSP, wLOGSY, T2 reduction) in words (SL1 Δbulge RNA) | KDest (SL1 wt RNA) | CSP [Hz] (SL1 Δbulge RNA) | Rank (SL1 Δbulge RNA) | T2 reduction [%] (SL1 Δbulge RNA) | wLOGSY factor (SL1 Δbulge RNA) | Kd (SL1 wt RNA) | scoring in the FBS ranking compared with lead A [1]
COc1ccc2nc(NC(=O)CN3CCC[C@@H](NCCN(C)c4cccc(O)c4)C3)sc2c1 [A.50] | 0.00 | 72.85% | 33 | 15.17 Hz | no effects | ambiguous | – | – | – | – | – | –
CCN(CCN[C@@H]1CCCN(CC(=O)Nc2nc3ccc(OC)cc3s2)C1)c1cccc(O)c1 [A.51] | 0.00 | 88.75% | 25 | 19.56 Hz | – | – | 4.44 Hz | 10 | 42.57% | 0.00 | 740 µM | –
COc1cc(OC)c2nc(NC(=O)CN3CCC[C@H](N)C3)sc2c1 [A.54] | 0.00 | 100.00% | 4 | 34.62 Hz | – | – | 3.60 Hz | 5 | 88.68% | 0.00 | 109 µM | –
COc1cc(OC)c2nc(NC(=O)CN3CCC[C@@H](N)C3)sc2c1 [A.55] | 0.00 | 100.00% | 5 | 34.05 Hz | no effects | – | – | – | – | – | 81.1 µM | –
COc1cc(OC)c2nc(NC(=O)CN3CCN(C)CC3)sc2c1 [A.56] | 0.00 | 100.00% | 7 | 31.95 Hz | no effects | – | – | – | – | – | 75.3 µM | –
COc1cc(OC)c2nc(NC(=O)CN3CCNCC3)sc2c1 [A.57] | 0.00 | 100.00% | 6 | 32.79 Hz | – | – | 4.92 Hz | 8 | 47.32% | 1.07 | 83.7 µM | –
COc1ccc(-c2nnc(NC(=O)CN3CCC[C@H](N)C3)s2)cc1OC [A.58] | 0.00 | 96.61% | 10 | 39.18 Hz | – | – | 9.24 Hz | 2 | 73.56% | 0.00 | 77.5 µM | ~4 fold
COc1ccc(-c2nnc(NC(=O)CN3CCC[C@@H](N)C3)s2)cc1OC [A.59] | 0.00 | 98.00% | 10 | 38.70 Hz | – | – | 9.18 Hz | 4 | 65.47% | 0.00 | 90.7 µM | ~4 fold
